US20220185832A1, “CD73 INHIBITORS” (BioArdis LLC, priority 2019, published 2022)

What was measured:
[1] = molecular target: T1, Recombinant Human 5′-Nucleotidase (CD73) (Homo sapiens, UniProt P21589); experiment: CD73 Enzyme Assay; type: biochemical; conditions: 0.5 nM human CD73, 30 μM AMP, PiColorLock phosphate detection, OD 635 nm; read-out: Potency (IC50)
T1 construct: CHO derived CD73 (Trp27-Lys547), with a C-terminal 6-His tag; 6-His (C); purchased R&D 5795-EN; host or cells: CHO
T1 sequence (P21589 27-547): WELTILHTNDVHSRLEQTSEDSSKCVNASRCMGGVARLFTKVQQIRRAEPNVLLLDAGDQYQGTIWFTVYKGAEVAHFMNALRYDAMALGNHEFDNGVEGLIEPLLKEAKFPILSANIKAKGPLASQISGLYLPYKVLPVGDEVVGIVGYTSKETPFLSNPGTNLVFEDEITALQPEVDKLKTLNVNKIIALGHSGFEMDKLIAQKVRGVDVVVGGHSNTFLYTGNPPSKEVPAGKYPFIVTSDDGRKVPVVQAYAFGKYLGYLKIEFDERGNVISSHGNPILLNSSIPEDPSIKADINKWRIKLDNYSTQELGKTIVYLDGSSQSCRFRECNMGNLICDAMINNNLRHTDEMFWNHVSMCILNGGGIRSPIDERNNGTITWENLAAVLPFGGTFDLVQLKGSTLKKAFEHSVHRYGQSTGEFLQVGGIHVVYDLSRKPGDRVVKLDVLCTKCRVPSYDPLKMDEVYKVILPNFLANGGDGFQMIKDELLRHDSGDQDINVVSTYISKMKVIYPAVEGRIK
Text: Soluble recombinant CD73 catalyzes the conversion of adenosine monophosphate (AMP) to adenosine and inorganic phosphate. The phosphate detection reagent, PiColorLock™ (Innova Bioscience, Cat #303-0125) is based on the change in absorbance of the dye malachite green in the presence of inorganic phosphate (Pi) and this property can be exploited to measure any enzyme that generates Pi. Recombinant Human 5′-Nucleotidase (CD73) (R&D #5795-EN, CHO derived CD73 (Trp27-Lys547), with a C-terminal 6-His tag) was used in the enzymatic assay. This assay was run in a 384-well plate format (Corning® NBS™ 384 well plates, Cat #3640). The basic assay procedure involves two steps: 1) Enzyme reaction: The CD73 enzyme (R&D #5795-EN) is incubated in the presence or absence of compounds. AMP (sigma, cat #01930) is added to start the kinase reaction. 2) Detection step: “Gold mix” is added to the assay system, then stabilizers are added. After incubation the absorbance of the solution is read at OD 635 nm. The recorded OD signal is proportional to the enzyme activity.
Briefly, 25 μl human CD73 (0.5 nM final concentration) in the enzymatic buffer solutions (20 mM Tris, 25 mM NaCl, 1 mM MgCl2, pH 7.5, 0.005% Tween-20) were mixed with various concentrations of the test compound (dissolved in 100% DMSO). These solutions were incubated for 15 min at 25° C., and subsequently 25 μl AMP (30 μM final concentration) was added to start the reaction. The final reaction mixture of enzyme-substrate-compound was incubated for 20 min at 37° C. Meanwhile, “Gold mix” was prepared shortly before use by adding 1/100 vol. of accelerator to the PiColorLock™ Gold reagent. 12 μL/well of the “Gold mix” was added to assay plate containing 50 μL enzyme reaction buffer and incubated at 25° C. for 5 min. 5 μL/well stabilizer was added to the assay plate and incubated at 25° C. for 30 min. The absorbance of the well solutions was measured at 635 nm on a Spark 10M instrument (TECAN).
(§1) The percent (%) inhibition at each concentration of a compound was calculated relative to the OD value in the Max and Min control wells contained within each assay plate. The Max control wells contained enzyme and substrate as 0% inhibition, and the Min control wells only contained substrate without enzyme as 100% inhibition. The concentrations and percent inhibition values for a test compound are plotted and the concentration of the compound required to achieve 50% inhibition (IC50) was determined with a four-parameter logistic dose response equation.

[2] = molecular target: T2, Cell surface CD73 of U87 MG human glioblastoma cells (Homo sapiens, UniProt P21589); experiment: CD73 Cellular Assay; type: cell-based; conditions: 5000 cells per well, 30 μM AMP, PiColorLock phosphate detection in supernatant, read-out: Potency (IC50)
T2 construct: Cell surface CD73 catalyzes the conversion of adenosine monophosphate (AMP) to adenosine and inorganic phosphate; endogenous in cells; host or cells: U87 MG human glioblastoma cells
T2 sequence (P21589 27-549): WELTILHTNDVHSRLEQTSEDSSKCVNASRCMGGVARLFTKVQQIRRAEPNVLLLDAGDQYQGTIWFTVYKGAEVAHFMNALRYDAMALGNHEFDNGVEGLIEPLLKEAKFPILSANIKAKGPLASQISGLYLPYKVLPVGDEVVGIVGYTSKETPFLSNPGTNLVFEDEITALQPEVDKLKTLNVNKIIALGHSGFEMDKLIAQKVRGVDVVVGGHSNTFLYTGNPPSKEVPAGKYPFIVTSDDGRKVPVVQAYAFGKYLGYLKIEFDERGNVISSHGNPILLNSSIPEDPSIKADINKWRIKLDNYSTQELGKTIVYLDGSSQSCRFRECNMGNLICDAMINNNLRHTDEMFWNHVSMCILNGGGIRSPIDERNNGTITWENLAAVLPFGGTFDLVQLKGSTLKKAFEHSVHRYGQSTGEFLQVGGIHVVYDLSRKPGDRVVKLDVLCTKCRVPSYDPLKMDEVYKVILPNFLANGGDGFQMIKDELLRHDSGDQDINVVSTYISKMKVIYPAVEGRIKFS
Description: Cell surface CD73 catalyzes the conversion of adenosine monophosphate (AMP) to adenosine and inorganic phosphate. U87 MG human glioblastoma cells express high level of CD73. Cells are treated with compounds in a 96-well assay plate and supernatants are collected into a 384-well detection plate. The concentration of inorganic phosphate (Pi) in the supernatants is determined using the phosphate detection reagent, PiColorLock™ (Innova Bioscience, Cat #303-0125) following the manufacturer's instructions.
Briefly, on the day of the assay, U87 MG cells were harvested and resuspended in assay buffer which consisted of 20 mM HEPES, pH=7.4, 137 mM NaCl, 5.4 mM KCl, 1.3 mM CaCl2, 4.2 mM NaHCO3 and 0.1% glucose. To test the effect of compounds on cellular CD73 enzymatic activity, 500 nL/well of compounds dissolved in DMSO were added to a 96-well TC-treated microplate (Corning #3599). Next, 80 μL/well of U87 MG cells in assay buffer were added to assay plate. After 30 minutes of incubation in an atmosphere of 5% CO2 at 37° C., 20 μL/well of 150 μM AMP (Adenosine 5′-monophosphate monohydrate, Sigma, Cat #01930) in assay buffer was added to assay plate. Final assay conditions consisted of 5000 cells per well in 0.5% DMSO and 30 μM AMP substrate. After 50 minutes of incubation in an atmosphere of 5% CO2 at 37° C., 50 μL/well of supernatant was transferred to the 384-well detection plate (Corning® NBSTM 384 well plates, Cat #3640). Meanwhile “Gold mix” was prepared shortly before use by adding 1/100 volume of accelerator to the PiColorLock™ Gold reagent. 12 μL/well of the “Gold mix” was added to detection plate containing 50 μL/well of supernatant and incubated at 25° C. for 5 minutes. 5 μL/well stabilizer was added to the detection plate and incubated at 25° C. for 30 minutes. The absorbance at 635 nm was measured on a Spark 10M instrument (TECAN).
as §1, with “cells” for “enzyme”, “cells” for “substrate without enzyme”

| SMILES | IC50 [1] [nM] | IC50 [2] [nM] |
| --- | --- | --- |
| O=P(O)(O)CP(=O)(O)OC[C@H]1O[C@@H](c2ccc3c(NCc4ccccc4)nc(Cl)nc3c2)[C@H](O)[C@@H]1O [Compound 1, (((((2R,3S,4R,5S)-5-(4-(benzylamino)-2-chloroquinazolin-7-yl)-3,4-dihydroxytetrahydrofuran-2-yl)methoxy)(hydroxy)phosphoryl)methyl)phosphonic acid] | 10 to 99 | < 10 |
| O=P(O)(O)CP(=O)(O)OC[C@H]1O[C@@H](c2ccc3c(NCCc4ccccc4)nc(Cl)nc3c2)[C@H](O)[C@@H]1O [Compound 2, (((((2R,3S,4R,5S)-5-(2-chloro-4-(phenethylamino)quinazolin-7-yl)-3,4-dihydroxytetrahydrofuran-2-yl)methoxy)(hydroxy)phosphoryl)methyl)phosphonic acid] | 10 to 99 | < 10 |
| CN(c1nc(Cl)nc2cc([C@@H]3O[C@H](COP(=O)(O)CP(=O)(O)O)[C@@H](O)[C@H]3O)ccc12)C1CCCC1 [Compound 3, (((((2R,3S,4R,5S)-5-(2-chloro-4-(cyclopentyl(methyl)amino)quinazolin-7-yl)-3,4-dihydroxytetrahydrofuran-2-yl)methoxy)(hydroxy)phosphoryl)methyl)phosphonic acid] | 10 to 99 | < 10 |
| O=P(O)(O)CP(=O)(O)OC[C@H]1O[C@@H](c2ccc3c(NC4CCCC4)nc(Cl)nc3c2)[C@H](O)[C@@H]1O [Compound 4, (((((2R,3S,4R,5S)-5-(2-chloro-4-(cyclopentylamino)quinazolin-7-yl)-3,4-dihydroxytetrahydrofuran-2-yl)methoxy)(hydroxy)phosphoryl)methyl)phosphonic acid] | < 10 | < 10 |
| O=P(O)(O)CP(=O)(O)OC[C@H]1O[C@@H](c2ccc3c(N[C@@H]4CCOC4)nc(Cl)nc3c2)[C@H](O)[C@@H]1O [Compound 38, (((((2R,3S,4R,5S)-5-(2-chloro-4-(((R)-tetrahydrofuran-3-yl)amino)quinazolin-7-yl)-3,4-dihydroxytetrahydrofuran-2-yl)methoxy)(hydroxy)phosphoryl)methyl)phosphonic acid] | 10 to 99 |  |
| O=P(O)(O)CP(=O)(O)OC[C@H]1O[C@@H](c2ccc3c(NC4CCCC4)nc(C4CC4)nc3c2)[C@H](O)[C@@H]1O [Compound 39, (((((2R,3S,4R,5S)-5-(4-(cyclopentylamino)-2-cyclopropylquinazolin-7-yl)-3,4-dihydroxytetrahydrofuran-2-yl)methoxy)(hydroxy)phosphoryl)methyl)phosphonic acid] | 10 to 99 |  |

Second part, the molecule after the results:

| IC50 [1] [nM] | IC50 [2] [nM] | SMILES |
| --- | --- | --- |
| 10 to 99 |  | O=P(O)(O)CP(=O)(O)OC[C@H]1O[C@@H](c2cnc3c(NC4CCCC4)nc(Cl)nc3c2)[C@H](O)[C@@H]1O [Compound 40, (((((2R,3S,4R,5S)-5-(2-chloro-4-(cyclopentylamino)pyrido[3,2-d]pyrimidin-7-yl)-3,4-dihydroxytetrahydrofuran-2-yl)methoxy)(hydroxy)phosphoryl)methyl)phosphonic acid] |
| 10 to 99 |  | CN(c1nc(Cl)nc2cc([C@@H]3O[C@H](COP(=O)(O)CP(=O)(O)O)[C@@H](O)[C@H]3O)cnc12)C1CCCC1 [Compound 41, (((((2R,3S,4R,5S)-5-(2-chloro-4-(cyclopentyl(methyl)amino)pyrido[3,2-d]pyrimidin-7-yl)-3,4-dihydroxytetrahydrofuran-2-yl)methoxy)(hydroxy)phosphoryl)methyl)phosphonic acid] |
| 10 to 99 |  | O=P(O)(O)CP(=O)(O)OC[C@H]1O[C@@H](c2ccc3c(NCC4CCC(O)CC4)nc(Cl)nc3c2)[C@H](O)[C@@H]1O (stereo partly drawn) [Compound 42, (((((2R,3S,4R,5S)-5-(2-chloro-4-(((4-hydroxycyclohexyl)methyl)amino)quinazolin-7-yl)-3,4-dihydroxytetrahydrofuran-2-yl)methoxy)(hydroxy)phosphoryl)methyl)phosphonic acid] |
| 10 to 99 |  | O=P(O)(O)CP(=O)(O)OC[C@H]1O[C@@H](c2ccc3c(NCC4CC(O)C4)nc(Cl)nc3c2)[C@H](O)[C@@H]1O (stereo partly drawn) [Compound 44, (((((2R,3S,4R,5S)-5-(2-chloro-4-(((3-hydroxycyclobutyl)methyl)amino)quinazolin-7-yl)-3,4-dihydroxytetrahydrofuran-2-yl)methoxy)(hydroxy)phosphoryl)methyl)phosphonic acid] |
| 10 to 99 |  | O=P(O)(O)CP(=O)(O)OC[C@H]1O[C@@H](c2ccc3c(NCc4ccccc4)nc(C4CC4)nc3c2)[C@H](O)[C@@H]1O [Compound 45, (((((2R,3S,4R,5S)-5-(4-(benzylamino)-2-cyclopropylquinazolin-7-yl)-3,4-dihydroxytetrahydrofuran-2-yl)methoxy)(hydroxy)phosphoryl)methyl)phosphonic acid] |
